Where two headings read alike, the source gives them in different places.
Key:
[1] = test system: Key Grass and Sedge Weeds as well as Grass Crops; assay: Post-Emergent Test II (Table 6); assay type: in vivo; conditions: post-emergence, 336 h, 14 days after application; for pest or weed control at 70 g/ha: 70 g ai/ha; for pest or weed control at 140 g/ha: 140 g ai/ha
How it was run: (§1)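 Post-emergence greenhouse spray, 1st-2nd true leaf stage; track sprayer, 187 L/ha; acetone/DMSO stock diluted in aqueous acetone/IPA/DMSO with Atplus 411F and Triton X-155; rates 1× to 1/16×; subirrigated; visual injury 0 (none) to 100% (complete kill) at 14 days.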

[2] = test system: Key Broadleaf Weed and Crop Species; assay: Post-Emergent Test II (Table 5); assay type: in vivo; conditions: post-emergence, 336 h; for pest or weed control at 70 g/ha: application rate 70 (kg ai/ha; footnote: g ai/ha); for pest or weed control at 140 g/ha: application rate 140 (kg ai/ha; footnote: g ai/ha)
How it was run: as §1

[3] = CYPSS, read-out: Visual Growth Reduction (%) 14 Days After Application CYPSS
[4] = DIGSA: crabgrass (Digitaria sanguinalis), read-out: Visual Growth Reduction (%) 14 Days After Application DIGSA
[5] = ORYSS (crop), read-out: Visual Growth Reduction (%) 14 Days After Application ORYSS
[6] = SORVU: grain sorghum (Sorghum vulgare), read-out: Visual Growth Reduction (%) 14 Days After Application SORVU
[7] = TRZSS (crop), read-out: Visual Growth Reduction (%) 14 Days After Application TRZSS
[8] = ZEAMX: maize, corn (Zea mays), read-out: Visual Growth Reduction (%) 14 Days After Application ZEAMX
[9] = Abutilon theophrasti, ABUTH: velvetleaf (Abutilon theophrasti), read-out: Visual Growth Reduction (%) 14 Days After Application ABUTH
[10] = Amaranthus retroflexus, AMARE: redroot pigweed (Amaranthus retroflexus), read-out: Visual Growth Reduction (%) 14 Days After Application AMARE
[11] = Brassica napus, BRSSS: oilseed rape, canola (Brassica napus), read-out: Visual Growth Reduction (%) 14 Days After Application BRSSS
[12] = Chenopodium album, CHEAL: lambsquarters (Chenopodium album), read-out: Visual Growth Reduction (%) 14 Days After Application CHEAL
[13] = Euphorbia heterophylla, EPHHL: wild poinsettia (Euphorbia heterophylla), read-out: Visual Growth Reduction (%) 14 Days After Application EPHHL
[14] = Helianthus annuus, HELAN: sunflower (Helianthus annuus), read-out: Visual Growth Reduction (%) 14 Days After Application HELAN
[15] = Viola tricolor, VIOTR: wild pansy (Viola tricolor), read-out: Visual Growth Reduction (%) 14 Days After Application VIOTR
[16] = ECHSS, read-out: Visual Growth Reduction (%) 14 Days After Application ECHSS
[17] = SETFA: giant foxtail (Setaria faberi), read-out: Visual Growth Reduction (%) 14 Days After Application SETFA

| Structure (SMILES) | pest or weed control at 70 g/ha [1, 3] | pest or weed control at 140 g/ha [1, 3] | pest or weed control at 70 g/ha [1, 4] | pest or weed control at 140 g/ha [1, 4] | pest or weed control at 70 g/ha [1, 5] | pest or weed control at 140 g/ha [1, 5] | pest or weed control at 70 g/ha [1, 6] | pest or weed control at 140 g/ha [1, 6] | pest or weed control at 70 g/ha [1, 7] | pest or weed control at 140 g/ha [1, 7] | pest or weed control at 70 g/ha [1, 8] | pest or weed control at 140 g/ha [1, 8] | pest or weed control at 70 g/ha [2, 9] | pest or weed control at 140 g/ha [2, 9] | pest or weed control at 70 g/ha [2, 10] | pest or weed control at 140 g/ha [2, 10] | pest or weed control at 70 g/ha [2, 11] | pest or weed control at 140 g/ha [2, 11] | pest or weed control at 70 g/ha [2, 12] | pest or weed control at 140 g/ha [2, 12] | also measured |
| --- | --- | --- | --- | --- | --- | --- | --- | --- | --- | --- | --- | --- | --- | --- | --- | --- | --- | --- | --- | --- | --- |
| Cc1c(-c2ccc(C(F)(F)F)nc2)nc(C(=O)O)c(Cl)c1N [Compound 51, 4-amino-5-chloro-3-methyl-6′-(trifluoromethyl)-[2,3′-bipyridine]-6-carboxylic acid] | 95 to 100% | 95 to 100% | 60 to 74% | 60 to 74% | 0 to 29% | 0 to 29% | 75 to 84% | 75 to 84% | 30 to 44% | 45 to 59% | 60 to 74% | 60 to 74% | 0 to 29% | 0 to 29% | 0 to 29% | 0 to 29% | 60 to 74% | 85 to 94% | 0 to 29% | 85 to 94% | pest or weed control at 70 g/ha [2, 13]: 0 to 29%; pest or weed control at 140 g/ha [2, 13]: 0 to 29%; pest or weed control at 70 g/ha [2, 14]: 85 to 94%; pest or weed control at 140 g/ha [2, 14]: 85 to 94%; pest or weed control at 70 g/ha [2, 15]: 0 to 29%; pest or weed control at 140 g/ha [2, 15]: 0 to 29%; melting point: 140 to 160 °C |
| Cc1c(-c2cc(N)c(Cl)c(C(=O)O)n2)ccc(Cl)c1F [Compound 52] | 85 to 94% | 95 to 100% | 0 to 29% | 30 to 44% | 0 to 29% | 0 to 29% | 0 to 29% | 30 to 44% | 45 to 59% | 60 to 74% | 45 to 59% | 60 to 74% | 95 to 100% | 95 to 100% | 95 to 100% | 95 to 100% | 95 to 100% | 95 to 100% | 95 to 100% | 95 to 100% | pest or weed control at 70 g/ha [1, 16]: 30 to 44%; pest or weed control at 140 g/ha [1, 16]: 45 to 59%; pest or weed control at 70 g/ha [1, 17]: 0 to 29%; pest or weed control at 140 g/ha [1, 17]: 45 to 59%; pest or weed control at 70 g/ha [2, 13]: 75 to 84%; pest or weed control at 140 g/ha [2, 13]: 85 to 94%; pest or weed control at 70 g/ha [2, 14]: 95 to 100%; pest or weed control at 140 g/ha [2, 14]: 95 to 100%; pest or weed control at 70 g/ha [2, 15]: 85 to 94%; pest or weed control at 140 g/ha [2, 15]: 85 to 94%; melting point: 160 to 162 °C |
| COc1nc(Cl)ccc1-c1cc(N)c(Cl)c(C(=O)O)n1 [Compound 57] | 0 to 29% | 0 to 29% | 0 to 29% | 0 to 29% | 0 to 29% | 0 to 29% | 0 to 29% | 0 to 29% | 0 to 29% | 0 to 29% | 0 to 29% | 0 to 29% | 85 to 94% | 85 to 94% | 95 to 100% | 95 to 100% | 75 to 84% | 75 to 84% | 85 to 94% | 85 to 94% | pest or weed control at 70 g/ha [1, 16]: 0 to 29%; pest or weed control at 140 g/ha [1, 16]: 0 to 29%; pest or weed control at 70 g/ha [1, 17]: 0 to 29%; pest or weed control at 140 g/ha [1, 17]: 0 to 29%; pest or weed control at 70 g/ha [2, 13]: 0 to 29%; pest or weed control at 140 g/ha [2, 13]: 0 to 29%; pest or weed control at 70 g/ha [2, 14]: 85 to 94%; pest or weed control at 140 g/ha [2, 14]: 85 to 94%; pest or weed control at 70 g/ha [2, 15]: 0 to 29%; pest or weed control at 140 g/ha [2, 15]: 0 to 29%; melting point: 170 to 171 °C |
| COC(=O)c1nc(-c2ccc(C(F)(F)F)nc2)c(F)c(N)c1Cl [Compound 59, methyl 4-amino-5-chloro-3-fluoro-6′-(trifluoromethyl)-[2,3′-bipyridine]-6-carboxylate] | 95 to 100% | 95 to 100% | 75 to 84% | 85 to 94% | 0 to 29% | 0 to 29% | 75 to 84% | 85 to 94% | 45 to 59% | 45 to 59% | 75 to 84% | 75 to 84% | 85 to 94% | 95 to 100% | 85 to 94% | 95 to 100% | 60 to 74% | 60 to 74% | 95 to 100% | 95 to 100% | pest or weed control at 70 g/ha [1, 16]: 85 to 94%; pest or weed control at 140 g/ha [1, 16]: 85 to 94%; pest or weed control at 70 g/ha [1, 17]: 60 to 74%; pest or weed control at 140 g/ha [1, 17]: 75 to 84%; pest or weed control at 70 g/ha [2, 13]: 95 to 100%; pest or weed control at 140 g/ha [2, 13]: 95 to 100%; pest or weed control at 70 g/ha [2, 14]: 95 to 100%; pest or weed control at 140 g/ha [2, 14]: 95 to 100%; pest or weed control at 70 g/ha [2, 15]: 60 to 74%; pest or weed control at 140 g/ha [2, 15]: 75 to 84%; melting point: 137 °C |

Reference: patent publication US10765114B2, “4-amino-6-(pyridyl and 2-substitutedphenyl)-picolinates and 6-amino-2-(pyridyl and 2-substitutedphenyl)-pyrimidine-4-carboxylates and their use as herbicides” (Dow AgroSciences LLC, priority 2013, dated 2020)
